# From US6436905B1, “Lipid-containing compositions and uses thereof” (Aston University, priority 1997, dated 2002)
# Test: Pulsating bubble surfactometry: minimum surface tension and time to reach it
# Assay type: physicochemical
# Excerpt: One of the most important properties of the polymer/phospholipid complexes in accordance with the invention, especially for use as artificial lung surfactants, is the manner in which the surface tension varies with repetitive changes in surface area, and one test method that has been used is a pulsating bubble technique using a pulsating bubble surfactometer which consists of a sample chamber, pulsator unit and pressure-recording device. In a particular example, the sample chamber is made up of a capillary tube (ID 0.5 mm) inserted into a wider diameter tube (ID 1.5 mm). The latter is filled with the sample liquid and connected to a pulsator unit and pressure transducer. Air is drawn in through the capillary tube which acts as an airways forming a bubble of air within the sample chamber. This bubble serves as a model alveolus. […] Variations of pressure within the bubble, during each pulsation cycle, are measured by a transducer and combined with values of bubble volume to calculate changes in surface tension.
# This pulsating bubble technique simulates to some extent the contraction and expansion of the alveoli sacks in the lungs and allows the surface tension to be assessed at minimum and maximum bubble volumes, and allows the effect of repeated expansion and compression cycles upon the adsorption of surface active components to be observed and quantified. This technique has been used as a model in vitro system for testing the efficacy of synthetic lung surfactants. Some results of tests carried out not only on the complexes prepared in accordance with the invention, but also on the membrane-forming phospholipids used and the polymers themselves, as well as on commercially available lung surfactants, are summarised in the Tables at the end of the present description.
# Showing minimum Surface Tension (ST) value achieved and time to reach this level.
# Pulse Rate (PR)=34, Temp=Room Temp & pH=7.0 unless otherwise stated.
# [1] = 1.0%, pH 3.22, PR = 12, room temp
# [2] = 1.0%, pH 7.0 (default), PR 34, room temp, 2 hrs hydration
# [3] = 1.0%, pH 7.0 (default), PR 34, room temp, 12 hr hydration
# [4] = 1.0%, pH 9.33, PR = 12, room temp
# [5] = 1.0%, pH 12.00, PR 34, room temp
# [6] = […], pH 7.0 (default), PR 34, room temp, Sonicated
# [7] = LALE 1.0%, pH 7.0 (default), PR 34, room temp
# [8] = DLPC (fresh) sonicated 0.5, pH 3.92, 24.0 °C, pulse rate 30/min
# [9] = DLPC (fresh) 0.5, pH 7.12, 25.1 °C, pulse rate 30/min
# [10] = DPPC 0.5, pH 4.1, 21.9 °C, pulse rate 30/min
# [11] = DPPC (fresh) 0.5, pH 6.3, 24.9 °C, pulse rate 30/min
# [12] = DPPC sonicated 0.5, pH 7.3, 23.1 °C, pulse rate 30/min
# [13] = DPPC sonicated 0.5, pH 7.3, 37.5 °C, pulse rate 30/min
# [14] = DPPC sonicated 0.5, pH 7.3, 24.0 °C, pulse rate 30/min
# [15] = DPPC sonicated 0.5, pH 7.3, 37.5 °C, after 40 mins at room temp, pulse rate 30/min
compound,measurement,setting,value
"CCCCCCCCCCCC(=O)OC[C@H](COP(=O)([O-])OCC[N+](C)(C)C)OC(=O)CCCCCCCCCCC [DLPC, Dilaurylphosphatidylcholine]",Minimal ST,[1],6.39 dynes/cm
same,Time to Develop,[1],30 min
same,Minimal ST,[2],6.82 dynes/cm
same,Time to Develop,[2],20 min
same,Minimal ST,[3],24.89 dynes/cm
same,Time to Develop,[3],30 min
same,Minimal ST,[4],15.66 dynes/cm
same,Time to Develop,[4],30 min
same,Minimal ST,[5],15.10 dynes/cm
same,Time to Develop,[5],30 min
same,Minimal ST,[6],9.60 dynes/cm
same,Time to Develop,[6],30 min
"CCCCCCCCCCCCOC(=O)CCCCCCCCCCC [LALE, Lauric acid lauryl ester]",Minimal ST,[7],22.61 dynes/cm
same,Time to Develop,[7],30 min
CCCCCCCCCCCC(=O)OC[C@H](COP(=O)([O-])OCC[N+](C)(C)C)OC(=O)CCCCCCCCCCC [dlf5],Time to Develop,"DLPC (fresh) 0.5, pH 5.47, 24.0 °C, pulse rate 30/min, first line",20 min
same,Minimal ST <10 dynes/cm,"DLPC (fresh) 0.5, pH 5.47, 24.0 °C, pulse rate 30/min, first line (time 20)",12.57 dynes/cm
same,Time to Develop,"DLPC (fresh) 0.5, pH 5.47, 24.0 °C, pulse rate 30/min, second line",40 min
same,Minimal ST <10 dynes/cm,"DLPC (fresh) 0.5, pH 5.47, 24.0 °C, pulse rate 30/min, second line (time 40)",0.04 dynes/cm
CCCCCCCCCCCC(=O)OC[C@H](COP(=O)([O-])OCC[N+](C)(C)C)OC(=O)CCCCCCCCCCC [dlfs4],Minimal ST <10 dynes/cm,[8],1.67 dynes/cm
same,Time to Develop,[8],10 min
CCCCCCCCCCCC(=O)OC[C@H](COP(=O)([O-])OCC[N+](C)(C)C)OC(=O)CCCCCCCCCCC [dlfs7],Minimal ST <10 dynes/cm,[9],18.25 dynes/cm
same,Time to Develop,[9],20 min
CCCCCCCCCCCCCCCC(=O)OC[C@H](COP(=O)([O-])OCC[N+](C)(C)C)OC(=O)CCCCCCCCCCCCCCC [dlpf4],Minimal ST <10 dynes/cm,[10],5.31 dynes/cm
same,Time to Develop,[10],30 min
CCCCCCCCCCCCCCCC(=O)OC[C@H](COP(=O)([O-])OCC[N+](C)(C)C)OC(=O)CCCCCCCCCCCCCCC [dlpf6],Minimal ST <10 dynes/cm,[11],16.18 dynes/cm
same,Time to Develop,[11],30 min
CCCCCCCCCCCCCCCC(=O)OC[C@H](COP(=O)([O-])OCC[N+](C)(C)C)OC(=O)CCCCCCCCCCCCCCC [dlpf7],Minimal ST <10 dynes/cm,[12],20.36 dynes/cm
same,Time to Develop,[12],40 min
CCCCCCCCCCCCCCCC(=O)OC[C@H](COP(=O)([O-])OCC[N+](C)(C)C)OC(=O)CCCCCCCCCCCCCCC [dp7st],Minimal ST <10 dynes/cm,[13],26.58 dynes/cm
same,Time to Develop,[13],2 min
CCCCCCCCCCCCCCCC(=O)OC[C@H](COP(=O)([O-])OCC[N+](C)(C)C)OC(=O)CCCCCCCCCCCCCCC [dpf7s],Minimal ST <10 dynes/cm,[14],9.99 dynes/cm
same,Time to Develop,[14],20 min
same,Minimal ST <10 dynes/cm,[15],27.95 dynes/cm
same,Time to Develop,[15],40 min
